# Source: patent US20240270821A1, “GIP/GLP1/GCG TRI-RECEPTOR AGONISTS AND USES THEREOF” (priority 2023, published 2024)
# Where two headings read alike, the source gives them in different places.
# What was measured:
# Type in all cases: cell-based
# hGIPR [1] = biological target: T1, hGIPR (Homo sapiens, UniProt P48546); test: Functional cAMP activity in the presence of 1% HSA; conditions: read-out: cAMP Rel EC50, hGIPR
# T1 sequence (P48546 22-466): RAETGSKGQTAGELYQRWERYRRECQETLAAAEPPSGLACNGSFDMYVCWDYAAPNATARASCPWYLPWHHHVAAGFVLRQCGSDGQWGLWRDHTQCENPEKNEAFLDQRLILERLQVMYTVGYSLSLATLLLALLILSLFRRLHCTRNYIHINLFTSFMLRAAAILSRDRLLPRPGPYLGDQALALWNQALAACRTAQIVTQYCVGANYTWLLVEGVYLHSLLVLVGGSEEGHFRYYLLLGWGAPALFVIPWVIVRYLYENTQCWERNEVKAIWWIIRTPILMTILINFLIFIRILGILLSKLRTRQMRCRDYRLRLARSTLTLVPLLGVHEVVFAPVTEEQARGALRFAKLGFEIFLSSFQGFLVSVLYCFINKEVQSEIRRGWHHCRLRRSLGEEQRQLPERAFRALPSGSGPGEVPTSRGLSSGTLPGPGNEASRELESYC
# hGLP-1R [2] = biological target: T2, hGLP-1R (Homo sapiens, UniProt P43220); test: Functional cAMP activity in the presence of 1% HSA; conditions: read-out: cAMP Rel EC50, hGLP-1R
# T2 sequence (P43220 24-463): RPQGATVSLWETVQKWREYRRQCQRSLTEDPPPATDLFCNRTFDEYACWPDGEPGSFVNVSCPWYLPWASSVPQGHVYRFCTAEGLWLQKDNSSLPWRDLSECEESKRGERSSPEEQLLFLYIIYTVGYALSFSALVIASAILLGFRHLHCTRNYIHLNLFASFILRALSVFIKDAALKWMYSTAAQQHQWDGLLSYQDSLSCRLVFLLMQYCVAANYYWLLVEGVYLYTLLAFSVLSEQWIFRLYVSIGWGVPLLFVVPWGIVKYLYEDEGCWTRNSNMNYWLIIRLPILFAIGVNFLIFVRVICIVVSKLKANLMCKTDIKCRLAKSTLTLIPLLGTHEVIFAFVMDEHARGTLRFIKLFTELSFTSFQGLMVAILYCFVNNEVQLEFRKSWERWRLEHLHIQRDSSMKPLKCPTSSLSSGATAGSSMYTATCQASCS
# human GcgR = human GcgR (Homo sapiens, UniProt P47871); test: Functional cAMP activity in the presence of 1% HSA; conditions: read-out: cAMP Rel EC50, hGcgR
# Chain of human GcgR (P47871 26-477): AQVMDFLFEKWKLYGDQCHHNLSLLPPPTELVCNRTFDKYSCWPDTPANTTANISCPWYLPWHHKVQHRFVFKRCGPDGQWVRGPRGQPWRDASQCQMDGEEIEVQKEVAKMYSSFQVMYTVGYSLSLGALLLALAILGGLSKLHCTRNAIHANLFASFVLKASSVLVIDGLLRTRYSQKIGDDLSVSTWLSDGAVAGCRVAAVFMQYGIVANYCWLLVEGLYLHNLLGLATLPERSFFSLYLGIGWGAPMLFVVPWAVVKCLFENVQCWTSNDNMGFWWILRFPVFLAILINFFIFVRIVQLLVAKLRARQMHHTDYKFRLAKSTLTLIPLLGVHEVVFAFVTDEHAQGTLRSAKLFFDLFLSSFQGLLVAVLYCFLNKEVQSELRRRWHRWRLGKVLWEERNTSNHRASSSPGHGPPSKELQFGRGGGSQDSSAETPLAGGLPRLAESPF
# hGIPR [3] = biological target: T1, hGIPR; test: Functional cAMP activation in the presence of 0.1% casein (no HSA); conditions: geometric mean, read-out: Relative cAMP EC50, hGIPR;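 for Relative cAMP EC50, hGIPR: intracellular cAMP rise after 30 min at 37 °C read by HTRF against a standard curve, scaled between buffer alone (0%) and top control ligand concentration (100%), four-parameter fit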;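 for Relative cAMP EC50, hGLP-1R: intracellular cAMP rise after 30 min at 37 °C read by HTRF, normalized between buffer only (0%) and maximal control ligand (100%), four-parameter variable-slope fit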;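 for Relative cAMP EC50, hGcgR: intracellular cAMP rise after 30 min at 37 °C, read by HTRF against a cAMP standard curve, scaled from buffer only (0%) to maximal control ligand response (100%)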
# hGLP-1R [4] = biological target: T2, hGLP-1R; test: as above; conditions: geometric mean, read-out: Relative cAMP EC50, hGLP-1R
# hGcgR = hGcgR (Homo sapiens, UniProt P47871); test: as above; conditions: geometric mean, read-out: Relative cAMP EC50, hGcgR;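 note: intracellular cAMP rise after 30 min at 37 °C, read by HTRF against a cAMP standard curve, scaled from buffer only (0%) to maximal control ligand response (100%)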
# Chain of hGcgR (P47871 26-477): as above
# [5] = in the presence of 0.1% casein (no HSA)
Compound,EC50 (hGIPR [1]),EC50 (hGLP-1R [2]),EC50 (human GcgR),EC50 (hGIPR [3]; [5]),EC50 (hGLP-1R [4]; [5]),EC50 (hGcgR; [5]),"EC50 (hGIPR [3]; 0.1% casein, no HSA)","EC50 (hGLP-1R [4]; 0.1% casein, no HSA)","EC50 (hGcgR; 0.1% casein, no HSA)"
CC[C@H](C)[C@H](NC(=O)[C@H](Cc1ccccc1)NC(=O)[C@H](C)NC(=O)[C@](C)(Cc1ccncc1)NC(=O)[C@H](CCC(N)=O)NC(=O)[C@H](C)NC(=O)[C@H](CCCCNC(=O)CC[C@H](NC(=O)CC[C@H](NC(=O)CCCCCCCCCCCCCCCCC(=O)O)C(=O)O)C(=O)O)NC(=O)[C@H](CCCN)NC(=O)[C@H](CC(=O)O)NC(=O)[C@H](CC(C)C)NC(=O)[C@](C)(CC(C)C)NC(=O)[C@H](CCC(N)=O)NC(=O)[C@H](CO)NC(=O)[C@H](Cc1ccncc1)NC(=O)[C@H](CC(=O)O)NC(=O)[C@H](CO)NC(=O)[C@@H](NC(=O)[C@H](Cc1ccccc1)NC(=O)[C@@H](NC(=O)CNC(=O)[C@H](CCC(N)=O)NC(=O)C(C)(C)NC(=O)[C@@H](N)Cc1ccc(O)cc1)[C@@H](C)O)[C@@H](C)O)C(=O)N[C@@H](CCC(=O)O)C(=O)N[C@@H](Cc1ccc(O)cc1)C(=O)N[C@@H](CC(C)C)C(=O)N[C@H](C(=O)N[C@@H](CCC(=O)O)C(=O)N[C@H](C)C(=O)NCC(=O)N1CCC[C@H]1C(=O)N[C@@H](CO)C(=O)N[C@@H](CO)C(=O)NCC(=O)N[C@@H](C)C(=O)N1CCC[C@H]1C(=O)N1CCC[C@H]1C(=O)N1CCC[C@H]1C(=O)N[C@@H](CO)C(=O)NCC(=O)N[C@@H](CO)C(=O)N[C@@H](CCC(=O)O)C(N)=O)[C@@H](C)CC [Example 1023],26 nM,230 nM,856 nM,0.235 nM,1.47 nM,3.82 nM,,,
CC[C@H](C)[C@H](NC(=O)[C@H](Cc1ccccc1)NC(=O)[C@H](C)NC(=O)[C@](C)(Cc1ccncc1)NC(=O)[C@H](CCC(N)=O)NC(=O)[C@H](C)NC(=O)[C@H](CCCCNC(=O)COCCOCCNC(=O)CC[C@H](NC(=O)CC[C@H](NC(=O)CCCCCCCCCCCCCCCCC(=O)O)C(=O)O)C(=O)O)NC(=O)[C@H](CCCCN)NC(=O)[C@H](CC(=O)O)NC(=O)[C@H](CC(C)C)NC(=O)[C@](C)(CC(C)C)NC(=O)[C@H](CCC(N)=O)NC(=O)[C@H](CO)NC(=O)[C@H](Cc1ccncc1)NC(=O)[C@H](CC(=O)O)NC(=O)[C@H](CO)NC(=O)[C@@H](NC(=O)[C@H](Cc1ccccc1)NC(=O)[C@@H](NC(=O)CNC(=O)[C@H](CCC(N)=O)NC(=O)C(C)(C)NC(=O)[C@@H](N)Cc1ccc(O)cc1)[C@@H](C)O)[C@@H](C)O)C(=O)N[C@@H](CCC(=O)O)C(=O)N[C@@H](Cc1ccc(O)cc1)C(=O)N[C@@H](CC(C)C)C(=O)N[C@H](C(=O)N[C@@H](CCC(=O)O)C(=O)N[C@H](C)C(=O)NCC(=O)N1CCC[C@H]1C(=O)N[C@@H](CO)C(=O)N[C@@H](CO)C(=O)NCC(=O)N[C@@H](C)C(=O)N1CCC[C@H]1C(=O)N1CCC[C@H]1C(=O)N1CCC[C@H]1C(=O)N[C@@H](CO)C(=O)NCC(=O)N[C@@H](CO)C(=O)N[C@@H](CCC(=O)O)C(N)=O)[C@@H](C)CC [Example 1024],32.5 nM,330 nM,760 nM,0.441 nM,4.79 nM,10.6 nM,,,
CC[C@H](C)[C@H](NC(=O)[C@H](Cc1ccccc1)NC(=O)[C@H](C)NC(=O)[C@](C)(Cc1ccncc1)NC(=O)[C@H](CCC(N)=O)NC(=O)[C@H](C)NC(=O)[C@H](CCCCNC(=O)CC[C@H](NC(=O)CC[C@H](NC(=O)CCCCCCCCCCCCCCCCC(=O)O)C(=O)O)C(=O)O)NC(=O)[C@H](CCCCN)NC(=O)[C@H](CC(=O)O)NC(=O)[C@H](CC(C)C)NC(=O)[C@](C)(CC(C)C)NC(=O)[C@H](CCC(N)=O)NC(=O)[C@H](CO)NC(=O)[C@H](Cc1ccncc1)NC(=O)[C@H](CC(=O)O)NC(=O)[C@H](CO)NC(=O)[C@@H](NC(=O)[C@H](Cc1ccccc1)NC(=O)[C@@H](NC(=O)CNC(=O)[C@H](CCC(N)=O)NC(=O)C(C)(C)NC(=O)[C@@H](N)Cc1ccc(O)cc1)[C@@H](C)O)[C@@H](C)O)C(=O)N[C@@H](CCC(=O)O)C(=O)N[C@@H](Cc1ccc(O)cc1)C(=O)N[C@@H](CC(C)C)C(=O)N[C@H](C(=O)N[C@@H](CCC(=O)O)C(=O)N[C@H](C)C(=O)NCC(=O)N1CCC[C@H]1C(=O)N[C@@H](CO)C(=O)N[C@@H](CO)C(=O)NCC(=O)N[C@@H](C)C(=O)N1CCC[C@H]1C(=O)N1CCC[C@H]1C(=O)N1CCC[C@H]1C(=O)N[C@@H](CO)C(=O)NCC(=O)N[C@@H](CO)C(=O)N[C@@H](CCC(=O)O)C(N)=O)[C@@H](C)CC [Example 1025],31.5 nM,352 nM,625 nM,0.18 nM,2.45 nM,3.22 nM,,,
CC[C@H](C)[C@H](NC(=O)[C@H](CC(C)C)NC(=O)[C@](C)(Cc1ccc(O)cc1)NC(=O)[C@H](CCC(=O)O)NC(=O)[C@@H](NC(=O)[C@H](Cc1ccccc1)NC(=O)[C@H](CCC(N)=O)NC(=O)[C@](C)(Cc1ccncc1)NC(=O)[C@H](CCC(N)=O)NC(=O)[C@H](C)NC(=O)[C@H](CCCCNC(=O)COCCOCCNC(=O)CC[C@H](NC(=O)CCCCCCCCCCCCCCCCC(=O)O)C(=O)O)NC(=O)[C@H](CCCN)NC(=O)[C@H](CC(=O)O)NC(=O)[C@H](CC(C)C)NC(=O)[C@](C)(CC(C)C)NC(=O)[C@H](CCC(N)=O)NC(=O)[C@H](CO)NC(=O)[C@H](Cc1ccncc1)NC(=O)[C@H](CC(=O)O)NC(=O)[C@H](CO)NC(=O)[C@@H](NC(=O)[C@H](Cc1ccccc1)NC(=O)[C@@H](NC(=O)CNC(=O)[C@H](CCC(N)=O)NC(=O)C(C)(C)NC(=O)[C@@H](N)Cc1ccc(O)cc1)[C@@H](C)O)[C@@H](C)O)[C@@H](C)CC)C(=O)N[C@@H](CCC(=O)O)C(=O)NC(C)(C)C(=O)NCC(=O)N1CCC[C@H]1C(=O)N[C@@H](CO)C(=O)N[C@@H](CO)C(=O)NCC(=O)N[C@@H](C)C(=O)N1CCC[C@H]1C(=O)N1CCC[C@H]1C(=O)N1CCC[C@H]1C(=O)N[C@@H](CO)C(=O)NCC(=O)N[C@@H](CO)C(=O)N[C@@H](CCC(=O)O)C(=O)N[C@@H](CCC(=O)O)C(N)=O [Example 1109],20.2 nM,102 nM,510 nM,0.0626 nM,2.3 nM,10.8 nM,,,
CC[C@H](C)[C@H](NC(=O)[C@H](CC(C)C)NC(=O)[C@](C)(Cc1ccc(O)cc1)NC(=O)[C@H](CCC(=O)O)NC(=O)[C@@H](NC(=O)[C@H](Cc1ccccc1)NC(=O)[C@H](CCC(N)=O)NC(=O)[C@](C)(Cc1ccncc1)NC(=O)[C@H](CCC(N)=O)NC(=O)[C@H](C)NC(=O)[C@H](CCCCNC(=O)COCCOCCNC(=O)CC[C@H](NC(=O)CCCCCCCCCCCCCCCCC(=O)O)C(=O)O)NC(=O)[C@H](CCCN)NC(=O)[C@H](CC(=O)O)NC(=O)[C@H](CC(C)C)NC(=O)[C@](C)(CC(C)C)NC(=O)[C@H](CCC(N)=O)NC(=O)[C@H](CO)NC(=O)[C@H](Cc1ccncc1)NC(=O)[C@H](CC(=O)O)NC(=O)[C@H](CO)NC(=O)[C@@H](NC(=O)[C@H](Cc1ccccc1)NC(=O)[C@@H](NC(=O)CNC(=O)[C@H](CCC(N)=O)NC(=O)C(C)(C)NC(=O)[C@@H](N)Cc1ccc(O)cc1)[C@@H](C)O)[C@@H](C)O)[C@@H](C)CC)C(=O)N[C@@H](C)C(=O)NC(C)(C)C(=O)NCC(=O)N1CCC[C@H]1C(=O)N[C@@H](CO)C(=O)N[C@@H](CO)C(=O)NCC(=O)N[C@@H](C)C(=O)N1CCC[C@H]1C(=O)N1CCC[C@H]1C(=O)N1CCC[C@H]1C(=O)N[C@@H](CO)C(=O)NCC(=O)N[C@@H](CO)C(=O)N[C@@H](CCC(=O)O)C(=O)N[C@@H](CCC(=O)O)C(N)=O [Example 1111],3.66 nM,51.3 nM,299 nM,0.0356 nM,1.14 nM,5.28 nM,,,
CC[C@H](C)[C@H](NC(=O)[C@H](CC(C)C)NC(=O)[C@](C)(Cc1ccc(O)cc1)NC(=O)[C@@H](CCC(=O)O)NC(=O)[C@@H](NC(=O)[C@H](Cc1ccccc1)NC(=O)[C@H](CCC(=O)O)NC(=O)[C@](C)(Cc1ccncc1)NC(=O)[C@H](CCC(N)=O)NC(=O)[C@H](C)NC(=O)[C@H](CCCCNC(=O)COCCOCCNC(=O)COCCOCCNC(=O)CC[C@H](NC(=O)CCCCCCCCCCCCCCCCC(=O)O)C(=O)O)NC(=O)[C@H](CCCN)NC(=O)[C@H](CC(=O)O)NC(=O)[C@H](CC(C)C)NC(=O)[C@](C)(CC(C)C)NC(=O)[C@@H](NC(=O)[C@](C)(CO)NC(=O)[C@H](Cc1ccncc1)NC(=O)[C@H](CC(=O)O)NC(=O)[C@H](CO)NC(=O)[C@@H](NC(=O)[C@](C)(Cc1ccccc1F)NC(=O)[C@@H](NC(=O)CNC(=O)[C@H](CCC(N)=O)NC(=O)C(C)(C)NC(=O)[C@@H](N)Cc1ccc(O)cc1)[C@@H](C)O)[C@@H](C)O)[C@@H](C)CC)[C@@H](C)CC)C(=O)N[C@@H](CCC(=O)O)C(=O)NCC(=O)NCC(=O)N1CCC[C@H]1C(=O)N[C@@H](CO)C(=O)N[C@@H](CO)C(=O)NCC(=O)N[C@@H](C)C(=O)N1CCC[C@H]1C(=O)N1CCC[C@H]1C(=O)N1CCC[C@H]1C(=O)N[C@@H](CO)C(=O)NCC(=O)N[C@@H](CO)C(N)=O [Example 1207],0.633 nM,39.8 nM,470 nM,,,,0.00647 nM,0.299 nM,7.71 nM
